{"source": "patent US11205502B2", "about": "“Processing method and processing apparatus for efficacy of combined drug” (Institute of radiation medicine, academy of military …, priority 2015, dated 2021)", "test_system": "human hepatocellular carcinoma cell HepG2", "assay": "MTT method, growth inhibition of HepG2 by NX, TX and NX/TX combined application; expected additive effect by equivalent dose conversion", "assay_type": "cell-based", "settings": "for Efficacy of NX / Efficacy of TX: from fitted single-use equation", "from_the_text": "Title: the nitrohydroxyl compound (NX) is an anti-infectious drug. […] Taxol (TX) is an anticancer drug frequently used in clinic. In an NX/TX combined application, the growth of a human hepatocellular carcinoma cell HepG2 is inhibited in an MTT method. A method for quantitatively processing relevant indexes of synergistic/additive/antagonistic effect is described, which provides a reference for research and development of a novel anticancer compound.\nStep 1: a dose-effect relationship table of dose levels of each single drug and each member in a combined group is prepared, and a respective dose-effect relationship curve equation is fitted. For dose-effect relationship data among the NX, the TX and the single drug, the NX+TX at a fixed proportion in combined use (1/1, μg/ml+ng/ml), and dose-effect relationship data of the TX at a fixed concentration (2 ng/ml)+the NX at different concentrations in the combined use, see a table 1.\nStep 2: the dose is converted sequentially, and each line of the dose-effect relationship data formed into an expected additive efficacy curve band under a combined condition is calculated.\nDescriptions on numerical calculation in each column of the table 2: (3) column: data in (2) column are calculated with the formula (2); (4) column: data in (3) column are calculated with the formula (1); (5) column: (1) column+(4) column; (6) column: data in (5) column are calculated with the formula (1).\nDescriptions on numerical calculation in each column: (7) column: data in (1) column are calculated with the formula (1); (8) column: data in (7) column are calculated with the formula (2); (9) column: (2) column+(8) column; (10) column: data in (9) column are calculated with the formula (2); “-” indicates to be beyond the dose-effect range of the TX.\nDescriptions on numerical calculation in each column: (3) column: from the table 2; (4) column: from the table 3; (5) column: from the table 1; (6) column: (5) column data/(3) column data; (7) column: (5) column data/(4) column data; (8) column: standards are referred to the previous CId calculation."}
{"smiles": "O=[N+]([O-])c1ccc(O)c2ncccc12", "note": "[NX, nitrohydroxyl compound]", "values": [{"measurement": "Inhibition rate", "setting": "NX 0.5 μg/ml single use", "result": 5.5, "unit": "%"}, {"measurement": "Efficacy of NX", "setting": "NX 0.5 μg/ml", "result": 5.5596, "unit": "%"}, {"measurement": "Efficacy of NX", "setting": "NX 0.6 μg/ml", "result": 6.4726, "unit": "%"}, {"measurement": "Efficacy of NX", "setting": "NX 0.7 μg/ml", "result": 7.7324, "unit": "%"}, {"measurement": "Efficacy of NX", "setting": "NX 0.8 μg/ml", "result": 9.3724, "unit": "%"}, {"measurement": "Efficacy of NX", "setting": "NX 0.9 μg/ml", "result": 11.4093, "unit": "%"}, {"measurement": "Inhibition rate", "setting": "NX 1 μg/ml single use", "result": 14, "unit": "%"}, {"measurement": "Efficacy of NX", "setting": "NX 1 μg/ml", "result": 13.8409, "unit": "%"}, {"measurement": "Efficacy of NX", "setting": "NX 1.2 μg/ml", "result": 19.7842, "unit": "%"}, {"measurement": "Efficacy of NX", "setting": "NX 1.4 μg/ml", "result": 26.8326, "unit": "%"}, {"measurement": "Efficacy of NX", "setting": "NX 1.6 μg/ml", "result": 34.4514, "unit": "%"}, {"measurement": "Efficacy of NX", "setting": "NX 1.8 μg/ml", "result": 42.0953, "unit": "%"}, {"measurement": "Inhibition rate", "setting": "NX 2 μg/ml single use", "result": 49.2, "unit": "%"}, {"measurement": "Efficacy of NX", "setting": "NX 2 μg/ml", "result": 49.3297, "unit": "%"}, {"measurement": "Efficacy of NX", "setting": "NX 2.4 μg/ml", "result": 61.6284, "unit": "%"}, {"measurement": "Efficacy of NX", "setting": "NX 2.8 μg/ml", "result": 70.7302, "unit": "%"}, {"measurement": "Efficacy of NX", "setting": "NX 3.2 μg/ml", "result": 77.1469, "unit": "%"}, {"measurement": "Efficacy of NX", "setting": "NX 3.6 μg/ml", "result": 81.6125, "unit": "%"}, {"measurement": "Inhibition rate", "setting": "NX 4 μg/ml single use", "result": 84.9, "unit": "%"}, {"measurement": "Efficacy of NX", "setting": "NX 4 μg/ml", "result": 84.7367, "unit": "%"}, {"measurement": "Efficacy of NX", "setting": "NX 5 μg/ml", "result": 89.1832, "unit": "%"}, {"measurement": "Efficacy of NX", "setting": "NX 6 μg/ml", "result": 91.2729, "unit": "%"}, {"measurement": "Efficacy of NX", "setting": "NX 7 μg/ml", "result": 92.3603, "unit": "%"}, {"measurement": "Inhibition rate", "setting": "NX 8 μg/ml single use", "result": 92.9, "unit": "%"}, {"measurement": "Efficacy of NX", "setting": "NX 8 μg/ml", "result": 92.9754, "unit": "%"}, {"measurement": "Efficacy of NX", "setting": "NX 10 μg/ml", "result": 93.5845, "unit": "%"}, {"measurement": "Efficacy of NX", "setting": "NX 12 μg/ml", "result": 93.8519, "unit": "%"}, {"measurement": "Efficacy of NX", "setting": "NX 14 μg/ml", "result": 93.9866, "unit": "%"}, {"measurement": "Inhibition rate", "setting": "NX 16 μg/ml single use", "result": 94.1, "unit": "%"}, {"measurement": "Efficacy of NX", "setting": "NX 16 μg/ml", "result": 94.0615, "unit": "%"}, {"measurement": "NX dose limits of the additive effect", "setting": "TX fixed dose 2 ng/ml", "result": "2.1229−4.5777 μg/ml"}]}
{"smiles": "CC(=O)O[C@H]1C(=O)[C@@]2(C)[C@H]([C@H](OC(=O)c3ccccc3)[C@]3(O)C[C@H](OC(=O)[C@H](O)[C@@H](NC(=O)c4ccccc4)c4ccccc4)C(C)=C1C3(C)C)[C@]1(OC(C)=O)CO[C@@H]1C[C@@H]2O", "note": "[TX, Taxol]", "values": [{"measurement": "inhibition at 0.0005 µg/mL", "setting": "Homo sapiens, HepG2, TX 0.5 ng/ml single use, read-out: Inhibition rate", "result": 4.5, "unit": "%"}, {"measurement": "inhibition at 0.001 µg/mL", "setting": "Homo sapiens, HepG2, TX 1 ng/ml single use, read-out: Inhibition rate", "result": 14.1, "unit": "%"}, {"measurement": "inhibition at 0.002 µg/mL", "setting": "Homo sapiens, HepG2, TX 2 ng/ml single use, read-out: Inhibition rate", "result": 32.5, "unit": "%"}, {"measurement": "inhibition at 0.004 µg/mL", "setting": "Homo sapiens, HepG2, TX 4 ng/ml single use, read-out: Inhibition rate", "result": 59.3, "unit": "%"}, {"measurement": "inhibition at 0.008 µg/mL", "setting": "Homo sapiens, HepG2, TX 8 ng/ml single use, read-out: Inhibition rate", "result": 80.3, "unit": "%"}, {"measurement": "inhibition at 0.016 µg/mL", "setting": "Homo sapiens, HepG2, TX 16 ng/ml single use, read-out: Inhibition rate", "result": 87.4, "unit": "%"}, {"measurement": "Efficacy of TX", "setting": "TX 0.5 ng/ml", "result": 4.9763, "unit": "%"}, {"measurement": "Efficacy of TX", "setting": "TX 0.6 ng/ml", "result": 6.4296, "unit": "%"}, {"measurement": "Efficacy of TX", "setting": "TX 0.7 ng/ml", "result": 8.0213, "unit": "%"}, {"measurement": "Efficacy of TX", "setting": "TX 0.8 ng/ml", "result": 9.7270, "unit": "%"}, {"measurement": "Efficacy of TX", "setting": "TX 0.9 ng/ml", "result": 11.5241, "unit": "%"}, {"measurement": "Efficacy of TX", "setting": "TX 1 ng/ml", "result": 13.3922, "unit": "%"}, {"measurement": "Efficacy of TX", "setting": "TX 1.2 ng/ml", "result": 17.2688, "unit": "%"}, {"measurement": "Efficacy of TX", "setting": "TX 1.4 ng/ml", "result": 21.2305, "unit": "%"}, {"measurement": "Efficacy of TX", "setting": "TX 1.6 ng/ml", "result": 25.1792, "unit": "%"}, {"measurement": "Efficacy of TX", "setting": "TX 1.8 ng/ml", "result": 29.0423, "unit": "%"}, {"measurement": "Efficacy of TX", "setting": "TX 2 ng/ml", "result": 32.7687, "unit": "%"}, {"measurement": "Efficacy of TX", "setting": "TX 2.4 ng/ml", "result": 39.6901, "unit": "%"}, {"measurement": "Efficacy of TX", "setting": "TX 2.8 ng/ml", "result": 45.8191, "unit": "%"}, {"measurement": "Efficacy of TX", "setting": "TX 3.2 ng/ml", "result": 51.1569, "unit": "%"}, {"measurement": "Efficacy of TX", "setting": "TX 3.6 ng/ml", "result": 55.7657, "unit": "%"}, {"measurement": "Efficacy of TX", "setting": "TX 4 ng/ml", "result": 59.7311, "unit": "%"}, {"measurement": "Efficacy of TX", "setting": "TX 5 ng/ml", "result": 67.3956, "unit": "%"}, {"measurement": "Efficacy of TX", "setting": "TX 6 ng/ml", "result": 72.7395, "unit": "%"}, {"measurement": "Efficacy of TX", "setting": "TX 7 ng/ml", "result": 76.5600, "unit": "%"}, {"measurement": "Efficacy of TX", "setting": "TX 8 ng/ml", "result": 79.3653, "unit": "%"}, {"measurement": "Efficacy of TX", "setting": "TX 10 ng/ml", "result": 83.1039, "unit": "%"}, {"measurement": "Efficacy of TX", "setting": "TX 12 ng/ml", "result": 85.4029, "unit": "%"}, {"measurement": "Efficacy of TX", "setting": "TX 14 ng/ml", "result": 86.9144, "unit": "%"}, {"measurement": "Efficacy of TX", "setting": "TX 16 ng/ml", "result": 87.9614, "unit": "%"}]}
